Measurements: US20090326053A1, “DIAGNOSTIC USES OF FOLLISTATIN-LIKE 1” (TRUSTEES OF BOSTON UNIVERSITY, priority 2008, published 2009)

What was measured:
[1] = tested on: neonatal rat ventricular myocytes (NRVMs); test: Nucleosome fragmentation ELISA in NRVMs; format: cell-based; settings: inhibitor 10 μmol/L, 3 hours prior to H/R
Description: (§1) Myocyte cultures. Primary cultures of neonatal rat ventricular myocytes (NRVCs) were prepared and incubated in Dulbecco's modified Eagle's medium (DMEM) supplemented with 7% Fetal Calf Serum (FCS)^42. Eighteen to 24 hours after preparation, cells were transfected with adenoviral vector at a multiplicity of infection (MOI) of 50 in DMEM without serum for 16 hours and incubated in DMEM without serum for more than 12 hours. Hypoxic conditions were generated using a GasPak system (Becton Dickinson) as described previously. For hypoxia/reoxygenation studies, cells were exposed 12 hr hypoxia followed by 24 hr reoxygenation.
Detection of nucleosome fragmentation by ELISA. Nucleosome fragmentation was assessed by ELISA using Cell Death Detection kit (Roche) according to the manufacture's protocol. Cardiac myocytes were seeded in 96-well plates, transfected with adenoviral vector and exposed to H/R. In one assay, 8 wells are used for one group and assays are repeated three times. The extent of nucleosome fragmentation of each group was expressed as relative value in comparison with the value of control group (Ad-βgal transfected cells without H/R).

[2] = tested on: neonatal rat ventricular myocytes (NRVMs); test: TUNEL staining of NRVMs after hypoxia/reoxygenation (H/R); format: cell-based; settings: inhibitor 10 μmol/L, 3 hours prior to H/R; P<0.05
Description: as §1
TUNEL staining. TUNEL staining for cultured cardiac myocytes was performed using the In Situ Cell Death detection kit (Roche) as described previously^2 with some modifications. In brief, cells are fixed by 4% paraformaldehyde in PBS, permeabilized with 0.1% Triton X-100 and incubated with anti-sarcomeric actinin antibody for 60 min followed by incubation with Cy3-conjugated anti-mouse IgG antibody. Cells were then incubated with TUNEL staining solution for 1 hr according to the manufacture's protocol. DAPI was used for nuclear staining. […] TUNEL positive myocytes were counted in randomly selected three fields of the slide and the experiments were repeated three times in duplicates.

## N#CC(=C(/N)Sc1ccccc1N)/C(C#N)=C(\N)Sc1ccccc1N [U0126]
[1]
  inhibitory effect of Fstl1 on nucleosome fragmentation after treatment with inhibitor: significantly attenuated
[2]
  protective action of Ad-Fstl1 on TUNEL positive cells after pre-incubation with inhibitor: partially attenuated
